The values below come from patent publication US5760188A, “Marker for neurotensin receptor” (Martin R&F Inc., priority 1996, dated 1998).

One data set in a line: Solubility. The following applies: distilled water or aqueous buffer. The format is physicochemical.
The nature of a further data set: Stability / shelf life. It is filed as physicochemical. To be noted: protected from light and maintained at 4° C.

Each structure is given as a SMILES string.

In the case of `CC[C@H](C)[C@H](NC(=O)[C@H](Cc1ccc(O)cc1)NC(=O)[C@@H]1CCCN1C(=O)[C@H](CCCNC(=N)N)NC(=O)[C@H](CCCNC(=N)N)NC(=O)[C@@H]1CCCN1C(=O)[C@H](CCCCN)NC(=O)[C@H](CC(N)=O)NC(=O)[C@H](CCC(=O)O)NC(=O)[C@H](Cc1ccc(O)cc1)NC(=O)[C@H](CC(C)C)NC(=O)[C@H](CCC(=O)O)NC(=S)Nc1ccc2c(c1)C(=O)OC21c2ccc(O)cc2Oc2cc(O)ccc21)C(=O)N[C@@H](CC(C)C)C(=O)O` [N-FTC-[Glu^1]NT, N-fluoresceyl thiocarbamyl-[Glu^1] neurotensin], the solubility result in the data set “Solubility” is “freely soluble”. The stability entry in the data set “Stability / shelf life” is reported as “stable”. The molecule also registered a toxicity in “Toxicity (statement)” of 100% non-toxic.
